This is an account of results in US20030113379A1, “Biodegradable composite matrix for enhancing angiogenesis and method for producing the same” (INDUSTRIAL TECHNOLOGY RESEARCH INSTITUTE, priority 2001, published 2003).

“Also recorded” adds a separate entry of the source.

In the assay the test system is mouse. Nature of the assay: Angiogenesis in mice after subcutaneous injection of hydrogel composite matrix (HE-stained tissue sections). Type of assay: in vivo. As to conditions: mice sacrificed 15 days after subcutaneous injection of the hydrogel; rank order against PBS control. As for the experimental part:
S-1-P was dissolved in methanol and the solution was poured into a round bottom flask. S-1-P was then dried and spread onto the inner wall of the flask by decompression distillation. PBS was added into the flask followed by rapid freezing using liquid nitrogen. The mixture was then sonicated under room temperature to melt the S-1-P from the inner wall and form micelles. The resulting S-1-P micelles were mixed with chitin hydrogel and bFGF to give a composite matrix. The composite matrix was introduced into the mouse via subcutaneous injection.
The mice were sacrificed 15 days after injecting the hydrogel. The implanted tissues were obtained, fixed, embedded, sectioned, stained, and observed under a 200 times microscope. The sizes and conditions of the blood vessels of the sections were observed. […] The arrows indicate the blood vessels. FIG. 2 is the average numbers of blood vessels of the tissue sections. It is shown that blood vessel number of the sections is bFGF/S-1-P>bFGF>PBS, which is in consistent with results shown in FIG. 1.

“bFGF: protein growth factor (fibroblast growth factor) used alone as the comparison sample”: the “average numbers of blood vessels of the tissue sections (FIG. 2)” value is on record as “larger than the PBS sample; also recorded: bFGF>PBS”.
